Our source for the IC50 values is US8415351B2 (priority 2007, dated 2013).

Assay [1] concerns the target T1, HCV polymerase 1A (Δ21 NS5B, H77) (Hepatitis C virus genotype 1a, UniProt P27958).
T1 construct: 20 to 50 nM Δ21 NS5B
Kind of assay: biochemical. Conditions: IC50 1a. The method, then:
(§1) HCV Polymerase Inhibition Assay
The reaction was initiated by the addition of 20 μM CTP, 20 μM ATP, 1 μM ^3H-UTP (10 mCi/umol), 5 nM template RNA and 0.1 U/μl RNase inhibitor (RNasin, Promega), and allowed to proceed for 2 to 4 h at room temperature. Reaction volume was 50 μl. The reaction was terminated by the addition of 1 volume of 4 mM spermine in 10 mM Tris-Cl pH 8.0, 1 mM EDTA. After incubation for at least 15 min at room temperature, the precipitated RNA was captured by filtering through a GF/B filter (Millipore) in a 96 well format. The filter plate was washed three times with 200 μl each of 2 mM spermine, 10 mM Tris-Cl pH 8.0, 1 mM EDTA, and 2 times with ethanol. After air-drying, 30 μl of Microscint 20 scintillation cocktail (Packard) was added to each well, and the retained cpm were determined by scintillation counting. […] Retained cpm were plotted vs. inhibitor concentration and fit to equation 1 using non-linear regression (ref. 1) to obtain the IC50 values: Retained cpm=A[sqrt{(IC50+It−Et)^2+4*IC50*Et}−(IC50+It−Et)]
Ref. Morrison, J. F. and S. R. Stone. […] Approaches to the study and analysis of the inhibition of enzymes by slow- and tight-binding inhibitors. Comments Mol. Cell. Biophys.
The sequence of the template RNA used was: 5′-[…]

For assay [2], the target named is T2, HCV polymerase 1B (Δ21 NS5B, BK) (Hepatitis C virus genotype 1b, UniProt P26663).
T2 construct: 20 to 50 nM Δ21 NS5B
In words: biochemical. The method, then:
as §1
Either two-fold serial dilutions (fractional inhibition assay) or a narrower range of dilutions spanning the IC50 of the inhibitor (tight binding assay) of the inhibitors were incubated with 20 mM Tris-Cl pH 7.4, 2 mM MnCl2, 1 mM dithiothreitol, 1 mM ethylene diamine tetraacetic acid (EDTA), 60 to 125 μM GTP and 20 to 50 nM Δ21 NS5B (HCV Strain 1B (BK, Genbank accession number M58335, or H77, Genbank accession number AF011751)) for 15 min at room temperature. The reaction was initiated by the addition of 20 μM CTP, 20 μM ATP, 1 μM ^3H-UTP (10 mCi/umol), 5 nM template RNA and 0.1 U/μl RNase inhibitor (RNasin, Promega), and allowed to proceed for 2 to 4 h at room temperature. Reaction volume was 50 μl. The reaction was terminated by the addition of 1 volume of 4 mM spermine in 10 mM Tris-Cl pH 8.0, 1 mM EDTA. After incubation for at least 15 min at room temperature, the precipitated RNA was captured by filtering through a GF/B filter (Millipore) in a 96 well format. The filter plate was washed three times with 200 μl each of 2 mM spermine, 10 mM Tris-Cl pH 8.0, 1 mM EDTA, and 2 times with ethanol. After air-drying, 30 μl of Microscint 20 scintillation cocktail (Packard) was added to each well, and the retained cpm were determined by scintillation counting. […] Retained cpm were plotted vs. inhibitor concentration and fit to equation 1 using non-linear regression (ref. 1) to obtain the IC50 values: Retained cpm=A[sqrt{(IC50+It−Et)^2+4*IC50*Et}−(IC50+It−Et)]
Ref. Morrison, J. F. and S. R. Stone. 1985. Approaches to the study and analysis of the inhibition of enzymes by slow- and tight-binding inhibitors. Comments Mol. Cell. Biophys. 2: 347-368.
The sequence of the template RNA used was: 5′-[…] […] […] […] […] […] […] […] […] […] […] […] […] […] […] […] […]-3′ (SEQ ID NO: 1)

Counter-ions that a name gives are not always drawn.

T1 sequence (P27958 2421-2990, stated change not applied): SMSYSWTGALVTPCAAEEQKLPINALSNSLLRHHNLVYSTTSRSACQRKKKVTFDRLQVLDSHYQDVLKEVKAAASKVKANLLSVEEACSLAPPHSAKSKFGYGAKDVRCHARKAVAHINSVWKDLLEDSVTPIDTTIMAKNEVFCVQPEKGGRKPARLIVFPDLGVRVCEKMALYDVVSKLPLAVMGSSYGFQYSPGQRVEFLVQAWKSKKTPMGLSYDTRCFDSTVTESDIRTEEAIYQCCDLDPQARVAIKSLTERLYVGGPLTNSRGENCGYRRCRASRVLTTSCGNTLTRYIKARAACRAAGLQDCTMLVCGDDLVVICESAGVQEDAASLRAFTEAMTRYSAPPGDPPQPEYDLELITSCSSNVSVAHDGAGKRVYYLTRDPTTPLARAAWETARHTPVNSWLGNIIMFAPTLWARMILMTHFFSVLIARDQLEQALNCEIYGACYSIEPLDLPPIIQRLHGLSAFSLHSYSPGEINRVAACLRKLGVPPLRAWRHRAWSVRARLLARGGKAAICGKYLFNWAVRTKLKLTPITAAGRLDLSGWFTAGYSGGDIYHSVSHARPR
T2 sequence (P26663 2420-2989, stated change not applied): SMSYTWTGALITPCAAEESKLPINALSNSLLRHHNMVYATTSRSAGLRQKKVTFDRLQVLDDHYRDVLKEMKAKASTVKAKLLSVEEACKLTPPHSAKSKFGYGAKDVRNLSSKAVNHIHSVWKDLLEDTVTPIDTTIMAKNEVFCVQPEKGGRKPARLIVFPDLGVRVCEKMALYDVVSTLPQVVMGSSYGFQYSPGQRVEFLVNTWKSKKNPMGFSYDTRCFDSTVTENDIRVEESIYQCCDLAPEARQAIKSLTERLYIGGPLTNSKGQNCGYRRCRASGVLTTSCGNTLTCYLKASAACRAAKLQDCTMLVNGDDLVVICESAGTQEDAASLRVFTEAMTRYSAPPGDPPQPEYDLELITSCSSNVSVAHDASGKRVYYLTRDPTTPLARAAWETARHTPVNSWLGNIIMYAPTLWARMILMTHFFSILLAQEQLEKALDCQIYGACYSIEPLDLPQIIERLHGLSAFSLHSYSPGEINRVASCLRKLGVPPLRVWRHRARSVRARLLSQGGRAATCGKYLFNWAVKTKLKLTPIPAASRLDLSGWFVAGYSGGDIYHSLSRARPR

Consider `CCN(CC)C(=O)C1CCCN(Cc2cc(N3CCC(=O)NC3=O)cc(C(C)(C)C)c2O)C1` (stereo not drawn) [IA-L5-1-1.7, 1-[3-tert-butyl-5-(2,4-dioxo-tetrahydro-pyrimidin-1-yl)-2-hydroxy-benzyl]-piperidine-3-carboxylic acid diethylamide, trifluoroacetic acid salt], for which the IC50 in assay [1] and in assay [2] was over 1000 nM throughout.

`COc1c(C(=O)Nc2ccc(C(C)=O)cc2)cc(N2CCC(=O)NC2=O)cc1C(C)(C)C` [IA-L3-1.42, N-(4-acetylphenyl)-3-tert-butyl-5-(2,4-dioxotetrahydropyrimidin-1(2H)-yl)-2-methoxy-benzamide]: the IC50 in assay [1] and in assay [2] was over 1000 nM in each case.

For the compound `COc1c(C(=O)Nc2ccc(NC(=O)COC(C)=O)cc2)cc(N2CCC(=O)NC2=O)cc1C(C)(C)C` [IA-L3-1.48, 2-(4-(3-tert-butyl-5-(2,4-dioxotetrahydropyrimidin-1(2H)-yl)-2-methoxybenzamido)phenyl-amino)-2-oxoethyl acetate], the IC50 in assay [1] and in assay [2] was over 1000 nM in each case.

For `CC1CN(Cc2cc(N3CCC(=O)NC3=O)cc(C(C)(C)C)c2O)CC(C)O1` (stereo not drawn) [IA-L5-1-1.13, 1-(3-tert-butyl-5-((2,6-dimethylmorpholino)methyl)-4-hydroxyphenyl)dihydro pyrimidine-2,4(1H,3H)-dione 2,2,2-trifluoroacetate], the IC50 in assay [1] and in assay [2] was over 1000 nM throughout.

For the compound `COc1c(C(=O)Nc2ccc(NC(=O)OC(C)(C)C)cc2)cc(N2CCC(=O)NC2=O)cc1C(C)(C)C` [IA-L3-1.50, Tert-butyl 4-(3-tert-butyl-5-(2,4-dioxotetrahydropyrimidin-1(2H)-yl)-2-methoxybenzamido)-phenylcarbamate], the IC50 in assay [1] and in assay [2] was over 1000 nM each time.

`COc1c(C(=O)Nc2ccc(S(C)(=O)=O)cc2)cc(N2CCC(=O)NC2=O)cc1C(C)(C)C` [IA-L3-1.78, 3-tert-butyl-5-(2,4-dioxotetrahydropyrimidin-1(2H)-yl)-2-methoxy-N-(4-(methylsulfonyl)phenyl)benzamide]: the IC50 in assay [1] and in assay [2] was over 1000 nM each time.

Turning to `CN(C(=O)c1cc(N2CCC(=O)NC2=O)cc(C(C)(C)C)c1O)c1ccccc1` [IA-L3-1.1, 3-tert-butyl-5-(2,4-dioxotetrahydropyrimidin-1(2H)-yl)-2-hydroxy-N-methyl-N-phenyl-benzamide], the IC50 in assay [1] and in assay [2] was over 1000 nM each time.

Consider `CS(=O)(=O)Nc1ccc(NC(=O)c2cc(N3CCC(=O)NC3=O)ccc2O)cc1` [IA-L3-1.114, 5-(2,4-dioxotetrahydropyrimidin-1(2H)-yl)-2-hydroxy-N-(4-(methylsulfonamido)phenyl)benzamide], for which the IC50 in assay [1] and in assay [2] was over 1000 nM each time.

Consider `COc1c(C(=O)Nc2ccc3c(c2)CS(=O)(=O)C3)cc(N2CCC(=O)NC2=O)cc1C(C)(C)C` [IA-L3-2.3, 3-tert-butyl-N-(2,2-dioxo-1,3-dihydrobenzo[c]thiophen-5-yl)-5-(2,4-dioxotetrahydropyrimidin-1(2H)-yl)-2-methoxybenzamide], for which the IC50 in assay [1] and in assay [2] was over 1000 nM each time.

On to `CC(C)(C)c1cc(N2CCC(=O)NC2=O)cc(CN2CCC[C@@H](O)C2)c1O` [IA-L5-1-1.6, 1-[3-tert-butyl-4-hydroxy-5-((R)-3-hydroxy-piperidin-1-ylmethyl)-phenyl]-dihydro-pyrimidine-2,4-dione; compound with trifluoroacetic acid], for which the IC50 in assay [1] and in assay [2] was over 1000 nM throughout.

Consider `COC(=O)Nc1ccc(NC(=O)c2cc(N3CCC(=O)NC3=O)cc(C(C)(C)C)c2OC)cc1` [IA-L3-1.49, Methyl 4-(3-tert-butyl-5-(2,4-dioxotetrahydropyrimidin-1(2H)-yl)-2-methoxybenzamido) phenylcarbamate], for which the IC50 in assay [1] and in assay [2] was over 1000 nM each time.

In the case of `CN(Cc1cc(N2CCC(=O)NC2=O)cc(C(C)(C)C)c1O)C1CCCCC1` [IA-L9-1.2, 1-(3-tert-butyl-5-((cyclohexyl(methyl)amino)methyl)-4-hydroxyphenyl)dihydro pyrimidine-2,4(1H,3H)-dione 2,2,2-trifluoroacetate], the IC50 in assay [1] and in assay [2] was over 1000 nM in each case.

`CCN(c1ccc(NC(=O)c2cc(N3CCC(=O)NC3=O)cc(C(C)(C)C)c2OC)cc1)S(C)(=O)=O` [IA-L3-1.63, 3-tert-butyl-5-(2,4-dioxotetrahydropyrimidin-1(2H)-yl)-N-(4-(N-ethylmethylsulfonamido)phenyl)-2-methoxybenzamide]: the IC50 in assay [1] and in assay [2] was over 1000 nM throughout.

Take `COc1c(C(=O)Nc2ccc(N(COC(C)=O)S(C)(=O)=O)cc2)cc(N2CCC(=O)NC2=O)cc1C(C)(C)C`: the half-maximal inhibitory concentration (IC50) in assay [1] was 100 to 1000 nM; in assay [2], over 1000 nM.

With `COc1c(C(=O)Nc2ccc(N(S(C)(=O)=O)S(C)(=O)=O)cn2)cc(N2CCC(=O)NC2=O)cc1C(C)(C)C` [IA-L3-1.101, 3-tert-butyl-5-(2,4-dioxotetrahydropyrimidin-1(2H)-yl)-2-methoxy-N-(5-(N-(methylsulfonyl)methylsulfonamido)pyridin-2-yl)benzamide], the IC50 in assay [1] and in assay [2] was over 1000 nM each time.

As for `COc1c(C(=O)Nc2ccc(NC(C)=O)cc2)cc(N2CCC(=O)NC2=O)cc1C(C)(C)C` [IA-L3-1.47, N-(4-acetamidophenyl)-3-tert-butyl-5-(2,4-dioxotetrahydropyrimidin-1(2H)-yl)-2-methoxy-benzamide], the IC50 in assay [1] and in assay [2] was over 1000 nM throughout.

As for `COc1c(C(=O)Nc2ccc(N(COC(=O)C(C)(C)C)S(C)(=O)=O)cc2)cc(N2CCC(=O)NC2=O)cc1C(C)(C)C` [IA-L3-1.65, (N-(4-(3-tert-butyl-5-(2,4-dioxotetrahydropyrimidin-1(2H)-yl)-2-methoxybenzamido)phenyl)methylsulfonamido)methyl pivalate], the IC50 in assay [1] and in assay [2] was over 1000 nM throughout.

`CC(C)(C)c1cc(N2CCC(=O)NC2=O)cc(NC(=O)c2ccccc2)c1O` [IA-L4-1.2, N-(3-tert-butyl-5-(2,4-dioxotetrahydropyrimidin-1(2H)-yl)-2-hydroxyphenyl)benzamide]: the half-inhibitory concentration (IC50) in assay [1] and in assay [2] was over 1000 nM throughout.

As to `COc1c(Cc2cn(C)c3ccccc23)cc(N2CCC(=O)NC2=O)cc1C(C)(C)C` [IA-L5-1-2.1, 1-(3-tert-butyl-4-methoxy-5-((1-methyl-1H-indol-3-yl)methyl)phenyl)dihydropyrimidine-2,4(1H,3H)-dione], the IC50 in assay [1] and in assay [2] was over 1000 nM in each case.

`COc1c(C(=O)Nc2ccc(NS(C)(=O)=O)cc2)cc(N2CCC(=O)N(CC3OCCO3)C2=O)cc1C(C)(C)C` [IA-L3-1.117, 5-(3-((1,3-dioxolan-2-yl)methyl)-2,4-dioxotetrahydropyrimidin-1(2H)-yl)-3-tert-butyl-2-methoxy-N-(4-(methylsulfonamido)phenyl)benzamide]: the IC50 in assay [1] and in assay [2] was over 1000 nM throughout.

For `COc1c(C(=O)Nc2ccc(N(CC3CC3)S(C)(=O)=O)cc2)cc(N2CCC(=O)NC2=O)cc1C(C)(C)C` [IA-L3-1.66, 3-tert-butyl-N-(4-(N-(cyclopropylmethyl)methylsulfonamido)phenyl)-5-(2,4-dioxotetrahydropyrimidin-1(2H)-yl)-2-methoxybenzamide], the IC50 in assay [1] and in assay [2] was over 1000 nM throughout.
